Reference: US6689777B2 (Kenneth S. Warren Institute, priority 2001, dated 2004)
Counter-ions that a name gives are not always drawn. Like-named read-outs stand apart in the source and are kept apart here.

Key:
synthetic hemozoin = assay: Depolymerization of synthetic hemozoin in vitro; type: biochemical; conditions: 50 mM test compound, acetate buffer pH 5.0, 37° C., 16 hours
Procedure: This activity is evaluated by incubating a suspension of monomer-free hemozoin at 37° C. with compounds of the present invention for 16 hours. After incubation, hemozoin is separated from any solubilized heme and soluble heme oligomers, the oligomers depolymerized, and the heme present in the supernatants determined.
The synthesis of synthetic hemozoin is carried out as previously described (26). In brief, 60 μmoles of hematin was dissolved in 8 ml of 0.1N NaOH. Following dissolution 49 mmoles of glacial acetic acid was added and the suspension heated at 70° C. overnight. The precipitate was then washed extensively with LPS-free water. In order to remove unreacted heme the precipitate was extracted with 0.1M sodium bicarbonate (pH 9.1) for three hours. The remaining insoluble material was recovered by centrifugation, resuspended in EtOH and transferred to sterile Eppendorf tubes. The material was washed several times in EtOH and finally resuspended in LPS-free double-distilled H2O. The hemozoin preparation was then tested for endotoxin by using the Limulus Amebocyte Lysate test following manufacturer's instructions. Although the preparation of LPS-free hemozoin from native or synthetic sources is not critical for in vitro depolymerization studies, it is critical for studies involving monocytes and animals (see Examples below). Small amounts of LPS can evoke a considerable cytokine response and interfere with interpretation of results. The amount of heme in the final product was determined from a small aliquot using the pyridine-hemochrome method as previously described (26). The preparations are stored at 4° C. until used.
A suspension of monomer-free hemozoin (equivalent to 2 mM free heme) as prepared above was incubated at 37° C. with […] test compound in total volume of 500 μl in acetate buffer (pH: 5.0) in siliconized Eppendorf tubes (Brinkmann Instruments, Westbury, N.Y.) for 16 hours. A control sample containing distilled H2O instead of hemozoin was included. The samples were centrifuged at 14,000 rpm (Eppendorf centrifuge model 5415C, Brinkmann Instruments, Westbury, N.Y.) for 20 min; then 225 μl supernatant was diluted in 175 μl acetate buffer (pH 5.0). Another 225 μl was added to 175 μl 0.5 M NaOH to dissolve possible oligomeric depolymerization products to monomers. Half of the pellet was washed twice for 2.5 hr in 200 μl 2.5% SDS (v/v) in dH2O, the other half was washed twice in 200 μl HCO3^− buffer (pH: 9.1). Both sample supernatants and SDS and HCO3^− buffer supernatants were centrifuged 14,000 rpm for 20 min. and supernatants were added to 10 μl sodium dithionite (200 mg/ml dH2O) to reduce the heme monomers in solution to Fe^2+. All samples were measured in triplicate at 540 nm (Model UV1601 spectrophotometer, Shimradzu Corp, Columbia, Md.). The OD obtained from the blind sample was subtracted from the OD of the hemozoin containing sample.

P. falciparum = P. falciparum growth in culture ([3H]-hypoxanthine incorporation); type: cell-based; conditions: read-out: IC50 vs. P. falc.
Procedure: To determine the effectiveness of the compounds of the present invention against the erythrocytic stage of the malarial parasite, P. falciparum was grown in human erythrocyte suspensions and maintained at 37° C. in candle jars according to the method of Trager and Jensen (15,16). Parasites were stage-synchronized by incubating mainly ring-stage infected erythrocytes in 5% sorbitol for 10 minutes at room temperature (17). Cultures undergo one growth cycle (2 days) before use. Strains used include the chloroquine sensitive strains D10 and HB3, and the chloroquine resistant isolates Dd2 and FCR.
Parasite growth was determined by measuring incorporation of [^3H]-hypoxanthine into the nucleic acids of the parasite (18). Effects of the compounds of the present invention on parasite growth was determined by measuring the reduction in incorporation of radiolabel as compared to controls. Briefly, assays are performed in 96-well microtiter plates. After 24 h of candle jar incubation at 37° C., [^3H]-hypoxanthine is added to each well. After 18 h the plates are harvested onto glass fiber filter 96 well plates using a cell harvester, dried, and the amount of radioactivity is determined. Drug IC50 values (molar concentration which decreases [^3H]-hypoxanthine incorporation by 50% as compared to drug-free controls) are calculated by extrapolation of the log dose-response curves using curve fitting software (Origin, Microcal Software, Northampton, Mass.).
Parasites were grown in A^+ human erythrocyte suspensions using RPMI-1640 (GIBCO, Gaithersburg, Md.) medium supplemented by 25 mM HEPES (pH 7.35), 0.2% NaHCO3 (23 mM), 0.2% (D)-Glucose and 10% human A^+ plasma and maintained at 37° C. in candle jars according to the method of Trager and Jensen (20,21) Parasites are stage synchronized by incubating mainly ring-stage infected erythrocytes in 5% sorbitol for 10 minutes at room temperature (22). Cultures undergo one growth cycle (2 days) before use. Strains used include the chloroquine sensitive strains D10 and HB3, and the chloroquine resistant isolates Dd2 and FCR.
Parasite growth was determined by measuring incorporation of [^3H]-hypoxanthine into the nucleic acids of the parasite as previously described (23). Effects of the compounds of the present invention on parasite growth was determined by measuring the reduction in incorporation of radiolabel as compared to controls. Briefly, assays were performed in 96-well microtiter plates, each well containing 200 μl of synchronized ring-stage infected erythrocytes in complete media and 50 μl of drug dilution or solvent. The final hematocrit was 1.5% and percent parasitemias range from 2-8%. After 24 h of candle jar incubation at 37° C., 2.5 μCi of [^3H]-hypoxanthine (17 Ci/mmol, Amersham, Arlington Heights, Ill.) in RPMI-1640 media supplemented with 25 mM HEPES (pH 7.35), 0.2% NaHCO3 (23 mM), 0.2% (D)-Glucose is added to each well. After 18 h the plates were harvested onto glass fiber filter 96 well plates using a cell harvester, dried, and 25 μl scintillation acid added per well. The, amount of radioactivity was determined. Drug IC50 values (molar concentration which decreases [^3H]-hypoxanthine incorporation by 50% as compared to drug-free controls) are calculated by extrapolation of the log dose-response curves using curve fitting software (Origin, Microcal Software, Northampton, Mass.). The effects on parasite grown by aromatic guanyllhydrazones, bisguanylhydrazones, naphthothiazolium salts, and other compounds of the instant invention, together with data on hemozoin depolymerization from Example 5, are shown in tables 1 through 4, respectively.

[1] = tested on: hemozoin ingested by human monocytes; assay: Breakdown of macrophage-ingested hemozoin; type: cell-based; conditions: 25 μM compound, FIG. 1
Procedure: A further evaluation of compounds was performed for activity against pathophysiological effects of hemozoin on the host, using hemozoin-laden macrophages in culture. Freshly-isolated human monocytes were suspended in medium and hemozoin at a concentration reflective of the amount of hemozoin released into circulation during schizogony. In order to maximize contact between hemozoin and monocytes, the cell preparations were centrifuged for 5 sec at 150×g. Ingestion of hemozoin is essentially complete by two hours. Cells were then washed, plated and kept in a humidified incubator. The test compounds of the present invention were added to the wells at concentrations ranging from 0 to 20 mM. Macrophage viability was determined by direct microscopic examination (gross morphology and detachment from the well), trypan blue exclusion method, and LDH release. […] At various times post-treatment (1 hour; 3 hours), cells were lysed, extensively washed and spun down (2500×g) to pellet any cellular components including hemozoin. The lysates were then treated with alkali to dissolve hemozoin to give monomeric heme (35). Monomeric heme was quantified as described above.
Human monocytes were freshly isolated from a buffy coat from a normal donor using Percoll gradients. […] Cells were solubilized at various time points and hemozoin content determined by luminol-elicited chemiluminescence.

[2] = Table 2, aromatic bisguanylhydrazones, growth in culture, [3H]-hypoxanthine incorporation

SMILES	% depol. hemoz. (synthetic hemozoin; Table 2) [%]	IC50 (P. falciparum; [2]) [µM]	other results
CC(=NNC(=N)N)c1cccc(C(C)=NNC(=N)N)c1.Cl.Cl [2,2′-(1,3-phenylenediethylidyne)bis(hydrazinecarboximidamide) dihydrochloride]	0.4	0.83	
Cl.Cl.N=C(N)NN=Cc1cccc(C=NNC(=N)N)c1 [2,2′-(1,3-phenylenedimethylidyne)bis(hydrazinecarboximidamide) dihydrochloride]	0.1	1	
CC(=NNC(=N)N)c1cccc(C(C)=NNC(=N)N)n1.Cl.Cl [2,2′-(2,6-pyridinediyldiethylidyne)bis(hydrazinecarboximidamide) dihydrochloride]	0.0	2	
CC(=NNC(=N)N)c1cncc(C(C)=NNC(=N)N)c1.Cl.Cl [2,2′-(3,5-pyridinediyldiethylidyne)bis(hydrazinecarboximidamide) dihydrochloride]	0.3	0.4	
CC(CCC1=C(CCC(C)=NNC(=N)N)C(=O)c2ccccc2C1=O)=NNC(=N)N.Cl.Cl [2,2′-[(1,4-dihydro-1,4-dioxo-2,3-naphthalenediyl)bis(1-methyl-3-propanyl-1-ylidene)]bis(hydrazinecarboximidamide)dihydrochloride]			% depol. hemoz. (synthetic hemozoin; Table 4): 0.3%; IC50 (P. falciparum; Table 4, in culture, [3H]-hypoxanthine incorporation): 0.8 µM
Cc1cc(C=NNC(=N)N)c(O)c(C=NNC(=N)N)c1 [2,2′-[(2-hydroxy-5-methyl-1,3-phenylene)dimethylidyne]bis(hydrazinecarboximidamide)]	2.3	0.2	hemozoin content of monocytes after phagocytosis of hemozoin (luminol-elicited chemiluminescence) [1]: significant reduction of hemozoin
COc1c(C=NNC(=N)N)cc(C)cc1C=NNC(=N)N.Cl.Cl [2,2′-[(2-methoxy-5-methyl-1,3-phenylene)dimethylidyne]bis(hydrazinecarboximidamide) dihydrochloride]	2.0	2.3	
CC(=NNC(=N)N)c1cc(C(C)=NNC(=N)N)c(O)cc1O.Cl.Cl [2,2′-[(4,6-dihydroxy-1,3-phenylene)diethylidyne]bis(hydrazinecarboximidamide) dihydrochloride]	2.6	7	
CC(=NNC(=N)N)c1ccc(O)c(C(C)=NNC(=N)N)c1.Cl.Cl [2,2′-[(4-hydroxy-1,3-phenylene)diethylidyne]bis(hydrazinecarboximidamide) dihydrochloride]	0.6	2.6	
Cl.Cl.N=C(N)NN=Cc1ccc(O)c(C=NNC(=N)N)c1 [2,2′-[(4-hydroxy-1,3-phenylene)dimethylidyne]bis(hydrazinecarboximidamide) dihydrochloride]	2.2	5.5	
CC(=NNC(=N)N)c1cc(N)cc(C(C)=NNC(=N)N)c1.Cl.Cl [2,2′-[(5-amino-1,3-phenylene)diethylidyne]bis(hydrazinecarboximidamide) dihydrochloride]	0.3	4	
CC(=NNC(=N)N)c1cc(O)cc(C(C)=NNC(=N)N)c1.Cl.Cl [2,2′-[(5-hydroxy-1,3-phenylene)diethylidyne]bis(hydrazinecarboximidamide) dihydrochloride]	0.0	1.4	
Cl.N=C(N)NN=Cc1c(O)ccc2ccccc12 [2-[(2-hydroxy-1-naphthyl)methylidene]hydrazinecarboximidamide monohydrochloride]			% depol. hemoz. (synthetic hemozoin; Table 1): 4.3%; IC50 (P. falciparum; Plasmodium falciparum): 1.8 µM
Cc1c(O)c2ccccc2c2c1sc(NCCCN(CCO)CCO)[n+]2C [2-[[3-[bis(2-hydroxyethyl)amino]propyl]imino]-1,2-dihydro-1,4-dimethylnaphtho[1,2-d]thiazol-5-ol dihydrochloride]			% depol. hemoz. (synthetic hemozoin; Table 3): 2.9%; IC50 (P. falciparum; Plasmodium falciparum): 0.2 µM
Cl.N=C(N)NN=Cc1c(N)oc2ccc(Cl)cc2c1=O [2-amino-3-[(aminoiminomethyl)hydrazono]methyl]-6-chloro-4H-1-benzopyran-4-one hydrochloride]			% depol. hemoz. (synthetic hemozoin; Table 1): 0.6%; IC50 (P. falciparum; Table 1, aryl monoguanylhydrazones, growth in culture, [3H]-hypoxanthine incorporation): 3.25 µM
Cc1c(O)c2ccccc2c2sc(NCCCN3CCOCC3)nc12 [4-methyl-2-[[3-(4-morpholino)propyl]amino]naphtho[1,2-d]thiazol-5-ol dihydrochloride]			IC50 (P. falciparum; Table 3, naphthothiazolium salts, in culture, [3H]-hypoxanthine incorporation): 0.6 µM
C/C(=N\NC(=N)N)c1cccc(NC(=O)CCCC(=O)Nc2cccc(/C(C)=N/NC(=N)N)c2)c1 [dihydrochloride]			% depol. hemoz. (synthetic hemozoin; Table 4): 0%; IC50 (P. falciparum; Plasmodium falciparum): 0.8 µM
